Like-named read-outs stand apart in the source and are kept apart here.
Key:
Test in all cases: Anti-proliferative activity, cell-titre luminescent viability assay
Type in all cases: cell-based
A549 = conditions: Homo sapiens, read-out: IC50 Lung (NSLC) A549
Protocol: (§1) The ability of compounds 3501-3540 and 3542-3545 to inhibit the proliferation of cancer cells representative of neuroblastoma, melanoma, prostate cancer, colorectal cancer, non-small cell lung carcinoma, and triple negative breast cancer was assessed. Briefly, a pre-determined number of cells as calculated from cell growth assays for each of the cell lines employed were seeded into their respective culture medium (using ATCC culture parameters—http://www.atcc.org) and cultured for 24 hours at 37° C. and 5% CO2 in 96-well culture plates. Once attached, each cell line was then exposed to increasing concentrations of each respective analogue (0.03, 0.3, 3 and 30 μM for compounds in Table 1; 0.1, 0.3, 1, 3, 10 and 30 μM for compounds in Table 2), cultured for a further 72 hours and exposed to cell-titre luminescent reagent (100 μL/well) for a further 30 min) to assess for cell viability. Luminescence was captured using an EnVision multilabel reader and the data for each analogue concentration was normalized, as a percentage, to the no treatment control. For compounds 3501, 3503, 3505-08, 3512-18, 3520, 3522-24 and 3531-36, semi-log plots of Percent of Control versus concentration were prepared and IC50 determined using linear regression analysis. For compounds 3502, 3504, 3509-11, 3519, 3521, 3525-30, 3537-40 and 3542-45, cell viability was normalized to control (vehicle alone) and dose-response curves, and half maximal effective concentration (EC50) values were determined using Graph Pad Prism 6 (nonlinear regression sigmoidal dose-response variable slope).

CaCo2 = conditions: Homo sapiens, read-out: IC50 Colorectal CaCo2
Protocol: as §1

DU145 = conditions: Homo sapiens, read-out: IC50 Prostate DU145
Protocol: as §1

MDA-MB-231 = conditions: Homo sapiens, read-out: IC50 Breast MDA-MB-231
Protocol: as §1

PC3 = conditions: Homo sapiens, read-out: IC50 Prostate PC3
Protocol: as §1

SK-Mel-28 = conditions: Homo sapiens, SK-MEL-28, 72 hours, read-out: IC50 Melanoma SK-Mel-28
Protocol: as §1

SK-N-SH = conditions: Homo sapiens, SK-N-SH, read-out: IC50 Neuroblastoma SK-N-SH
Protocol: as §1

[1] = A549, 72 h, 0.03, 0.3, 3 and 30 μM, linear regression of semi-log plots
[2] = Caco-2, 72 h, 0.03, 0.3, 3 and 30 μM, linear regression of semi-log plots
[3] = DU-145, 72 h, 0.03, 0.3, 3 and 30 μM, linear regression of semi-log plots
[4] = MDA-MB-231, 72 h, 0.03, 0.3, 3 and 30 μM, linear regression of semi-log plots
[5] = PC-3, 72 h, 0.03, 0.3, 3 and 30 μM, linear regression of semi-log plots
[6] = 0.03, 0.3, 3 and 30 μM, linear regression of semi-log plots
[7] = 72 h, 0.03, 0.3, 3 and 30 μM, linear regression of semi-log plots
[8] = A549, 72 h, 0.1, 0.3, 1, 3, 10 and 30 μM, nonlinear regression sigmoidal dose-response (EC50)
[9] = Caco-2, 72 h, 0.1, 0.3, 1, 3, 10 and 30 μM, nonlinear regression sigmoidal dose-response (EC50)
[10] = DU-145, 72 h, 0.1, 0.3, 1, 3, 10 and 30 μM, nonlinear regression sigmoidal dose-response (EC50)
[11] = MDA-MB-231, 72 h, 0.1, 0.3, 1, 3, 10 and 30 μM, nonlinear regression sigmoidal dose-response (EC50)
[12] = PC-3, 72 h, 0.1, 0.3, 1, 3, 10 and 30 μM, nonlinear regression sigmoidal dose-response (EC50)
[13] = 0.1, 0.3, 1, 3, 10 and 30 μM, nonlinear regression sigmoidal dose-response (EC50)
[14] = 72 h, 0.1, 0.3, 1, 3, 10 and 30 μM, nonlinear regression sigmoidal dose-response (EC50)

Row | SMILES | IC50 (A549; [1]) [µM] | IC50 (CaCo2; [2]) [µM] | IC50 (DU145; [3]) [µM] | IC50 (MDA-MB-231; [4]) [µM] | IC50 (PC3; [5]) [µM] | IC50 (SK-Mel-28; [6]) [µM] | IC50 (SK-N-SH; [7]) [µM] | IC50 (A549; [8]) [µM] | IC50 (CaCo2; [9]) [µM] | IC50 (DU145; [10]) [µM] | IC50 (MDA-MB-231; [11]) [µM] | IC50 (PC3; [12]) [µM] | IC50 (SK-Mel-28; [13]) [µM] | IC50 (SK-N-SH; [14]) [µM]
1 | Cc1c(C)n(CCCN2CCN(C)CC2)c2ccc(Cc3cccc(C(=O)N4CCN(CCc5ccc(F)cc5)CC4)c3)cc12 [Compound 3501, (3-((2,3-dimethyl-1-(3-(4-methylpiperazin-1-yl)propyl)-1H-indol-5-yl)methyl)phenyl)(4-(4-fluorophenethyl)piperazin-1-yl)methanone] | 3.7 | 3.1 | 2.6 | 2.1 | 2.4 | 1.3 | 3.1 |  |  |  |  |  |  | 
2 | COc1ccc(CCN2CCN(C(=O)c3cccc(Cc4ccc5c(c4)c(C)c(C)n5CCCN4CCN(C)CC4)c3)CC2)cc1 [Compound 3502, (3-((2,3-dimethyl-1-(3-(4-methylpiperazin-1-yl)propyl)-1H-indol-5-yl)methyl)phenyl)(4-(4-methoxyphenethyl)piperazin-1-yl)methanone] |  |  |  |  |  |  |  | 5 | 5.8 | 4.9 | 4.9 | 5.4 | 2.6 | 4.6
3 | Cc1c(C)n(CCCN2CCN(C)CC2)c2ccc(Cc3cccc(C(=O)N4CCN(CCc5ccc6c(c5)OCO6)CC4)c3)cc12 [Compound 3503, (4-(2-(benzo[d][1,3]dioxol-5-yl)ethyl)piperazin-1-yl)(3-((2,3-dimethyl-1-(3-(4-methylpiperazin-1-yl)propyl)-1H-indol-5-yl)methyl)phenyl)methanone] | 1.4 | 3.4 | 2.1 | 1 | 2.4 | 1 | 2.1 |  |  |  |  |  |  | 
4 | COc1cccc(CCN2CCN(C(=O)c3cccc(Cc4ccc5c(c4)c(C)c(C)n5CCCN4CCN(C)CC4)c3)CC2)c1 [Compound 3505, (3-((2,3-dimethyl-1-(3-(4-methylpiperazin-1-yl)propyl)-1H-indol-5-yl)methyl)phenyl)(4-(3-methoxyphenethyl)piperazin-1-yl)methanone] | 3.1 | 3.6 | 3.4 | 2.8 | 2.6 | 2.5 | 2.6 |  |  |  |  |  |  | 
5 | Cc1c(C)n(CCCN2CCN(C)CC2)c2ccc(Cc3cccc(C(=O)N4CCN(CCc5ccccc5)CC4)c3)cc12 [Compound 3506, (3-((2,3-dimethyl-1-(3-(4-methylpiperazin-1-yl)propyl)-1H-indol-5-yl)methyl)phenyl)(4-phenethylpiperazin-1-yl)methanone] | 3 | 2.7 | 3.2 | 1.9 | 2.1 | 1.3 | 3.7 |  |  |  |  |  |  | 
6 | COc1ccc(CCN2CCN(C(=O)c3cccc(Oc4ccc5c(c4)c(C)c(C)n5CCCN4CCN(C)CC4)c3)CC2)cc1 [Compound 3508, (3-((2,3-dimethyl-1-(3-(4-methylpiperazin-1-yl)propyl)-1H-indol-5-yl)oxy)phenyl)(4-(4-methoxyphenethyl)piperazin-1-yl)methanone] | 1.8 | 3.1 | 3.1 | 1.8 | 2.4 | 1.6 | 1.7 |  |  |  |  |  |  | 
7 | Cc1c(C)n(CCCN2CCN(C)CC2)c2ccc(Oc3cccc(C(=O)N4CCN(CCc5ccc6c(c5)OCO6)CC4)c3)cc12 [Compound 3509, (4-(2-(benzo[d][1,3]dioxol-5-yl)ethyl)piperazin-1-yl)(3-((2,3-dimethyl-1-(3-(4-methylpiperazin-1-yl)propyl)-1H-indol-5-yl)oxy)phenyl)methanone] |  |  |  |  |  |  |  | 4.7 | 5.2 | 5.9 | 5 | 6.9 | 5.1 | 5.3
8 | Cc1c(C)n(CCCN2CCN(C)CC2)c2ccc(Oc3cccc(C(=O)N4CCN(CCc5cccc(F)c5)CC4)c3)cc12 [Compound 3510, (3-((2,3-dimethyl-1-(3-(4-methylpiperazin-1-yl)propyl)-1H-indol-5-yl)oxy)phenyl)(4-(3-fluorophenethyl)piperazin-1-yl)methanone] |  |  |  |  |  |  |  | 6 | 5.8 | 8 | 20.4 | 8 | 4.9 | 4.6
